Like-named read-outs stand apart in the source and are kept apart here. Starred links: 1 amine or outer side, 2 acyl side, 3 side chain; linkers in the order of their positions; H or OH if unused. Non-standard residues stand in square brackets, D forms with d. Residues, ends and D or L forms follow the SMILES beside them. *: point of attachment. 2Naphthylsulfonyl = O=S(=O)(c1ccc2ccccc2c1)*; Phe(3-Cl) = N[C@@H](Cc1cccc(Cl)c1)C(=O)O; Phe(3-F) = N[C@@H](Cc1cccc(F)c1)C(=O)O; NMeE = CN[C@@H](CCC(=O)O)C(=O)O; Suc = O=C(CCC(=O)[*:2])[*:1]; Tos = Cc1ccc(S(=O)(=O)*)cc1; Moc = COC(=O)*
Assays:
[1] = molecular target: β-TrCP1/Skp1 (Homo sapiens, UniProt Q9Y297); test: βTrCP ubiquitination assay (Ub assay); type: biochemical; details: for Ub Assay 100 μM: 100 μM compound; for Ub Assay 10 μM: 10 μM compound
Procedure: (§1) βTrCP Ubiquitination Assay and Selectivity Assays
0.5 μM Peptide substrate (biotin)
(§2) Master mixes were prepared in a 50 mM Herpes buffer at pH 7.5, in 75 mM NaCl and 1 mM DTT without Mg or ATP and peptides were added to a final concentration of 100 μM. Reactions were incubated at room temperature for 30 minutes and then Mg/ATP was added to the mix. Reactions were further incubated for an additional 60 minutes and then stopped by adding SDS gel loading buffer and boiled for 5 minutes. Reactions were run on SDS-PAGE (10%) and transferred to nitrocellulose membranes and probed with HRP-Streptavidin.
Candidate compounds were tested in duplicate at both 10 and 100 μM against the E3 ligase cascades βTrCP(IκBα) and βTrCP(β-catenin). The E3 assays were carried out according to the component concentrations detailed in Table 9. In each case the E2 was HA,6His-UbcH3-(hu,FL), the E1 was 6His-UBE1-(hu,FL) and the ubiquitin (Sigma U6253) was biotinylated at a 5:1 ratio. Substrate phosphorylation was performed in the absence of compound; consequently any observed signal modulation should not reflect inhibition of the up-stream kinase reaction. All other steps (E1, E2 and substrate ubiquitination) were carried out in the presence of compound. The stopped reaction mix (10 μl) was added to an ECL plate loaded with anti c-Myc ( 1/500 Dilution, Millipore 05-724) and blocked with 5% BSA. Binding was allowed to proceed for 1 hour at RT before a wash step (3 40 μl PBST washes). Detection was achieved by binding SA-Ru TAG at 1 μg/ml (1 hour @ RT, 3 40 μl PBST washes) before reading on an MSD Sector Imager 6000.
Assays were performed as described above

[2] = molecular target: T1, βTrCP (Homo sapiens, UniProt Q9Y297); test: Biotin pull down assay with biotinylated IκB peptide; type: binding; details: for Biotin Pulldown Assay 100 μM: 100 μM compound; for Biotin Pulldown Assay 10 μM: 10 μM compound
T1 sequence (Q9Y297 1-605): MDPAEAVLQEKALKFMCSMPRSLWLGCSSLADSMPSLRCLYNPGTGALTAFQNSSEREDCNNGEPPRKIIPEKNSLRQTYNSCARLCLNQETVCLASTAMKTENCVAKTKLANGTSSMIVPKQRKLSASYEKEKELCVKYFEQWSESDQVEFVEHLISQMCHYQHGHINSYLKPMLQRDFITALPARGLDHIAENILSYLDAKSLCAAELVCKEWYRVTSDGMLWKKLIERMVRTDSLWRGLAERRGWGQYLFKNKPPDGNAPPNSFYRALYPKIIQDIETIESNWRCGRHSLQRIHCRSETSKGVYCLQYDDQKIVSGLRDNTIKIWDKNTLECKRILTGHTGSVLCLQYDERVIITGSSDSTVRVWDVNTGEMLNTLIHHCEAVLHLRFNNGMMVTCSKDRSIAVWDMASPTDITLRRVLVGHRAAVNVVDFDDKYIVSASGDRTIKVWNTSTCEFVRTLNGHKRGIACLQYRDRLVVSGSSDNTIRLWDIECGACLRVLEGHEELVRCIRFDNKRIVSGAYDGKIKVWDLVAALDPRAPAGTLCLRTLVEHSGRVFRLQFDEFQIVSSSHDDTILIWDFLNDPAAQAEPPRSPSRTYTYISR

[3] = molecular target: FBW7/Skp1 (Homo sapiens, UniProt Q969H0); test: Selectivity assay vs other E3s: Fbw7; type: biochemical; details: for inhibition at 100 µM: value in brackets, read-out: % Inhibition Fbw7 @ (100 μM); for inhibition at 10 µM: read-out: % Inhibition Fbw7 @ 10 μM
Procedure: as §1, §2
FBW7 selectivity assays were performed in the same manner except using FBW7/Skp1 as E3 component and cyclin E as the substrate. Blots were probed using anti-cyclin E antibody.
(§3) Candidate compounds were tested for inhibition of Fbw7 and Skp2 as described above.

[4] = molecular target: Skp2 (Homo sapiens, UniProt Q13309); test: Selectivity assay vs other E3s: Skp2; type: biochemical; details: for inhibition at 100 µM: value in brackets, read-out: % Inhibition Skp2 @ (100 μM); for inhibition at 10 µM: read-out: % Inhibition Skp2 @ 10 μM
Procedure: as §1, §2, §3

[5] = molecular target: βTrCP (Homo sapiens, UniProt Q9Y297); test: Fluorescence polarisation (FP) binding assay with fluorescein-tagged IκB peptide
Target sequence in this assay (P63208 whole entry partner, one chain of several): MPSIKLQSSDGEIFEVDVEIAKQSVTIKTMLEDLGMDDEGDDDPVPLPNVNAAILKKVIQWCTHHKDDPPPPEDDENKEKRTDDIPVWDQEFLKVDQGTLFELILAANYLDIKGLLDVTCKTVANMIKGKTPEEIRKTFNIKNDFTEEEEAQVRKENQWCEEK

[6] = Table 11, with spread, read-out: FP IC50/μM
[7] = Tables 1, 3, 7, 8, 10 nM fluorescein-tagged IκB peptide, read-out: FP Assay IC50/μM

Sequence of Skp2 (Q13309 whole entry, species assumed): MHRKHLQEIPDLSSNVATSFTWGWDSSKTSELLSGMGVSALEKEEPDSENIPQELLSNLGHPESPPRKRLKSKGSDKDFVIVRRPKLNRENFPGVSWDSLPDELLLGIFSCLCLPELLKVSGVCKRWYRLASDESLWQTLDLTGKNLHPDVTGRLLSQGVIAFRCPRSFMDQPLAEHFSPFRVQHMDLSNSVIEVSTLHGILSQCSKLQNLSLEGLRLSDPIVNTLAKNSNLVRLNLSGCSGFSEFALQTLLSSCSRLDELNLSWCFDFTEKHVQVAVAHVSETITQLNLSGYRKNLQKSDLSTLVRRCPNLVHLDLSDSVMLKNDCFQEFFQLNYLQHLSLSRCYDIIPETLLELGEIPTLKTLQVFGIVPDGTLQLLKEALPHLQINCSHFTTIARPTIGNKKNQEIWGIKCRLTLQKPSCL
Sequence of Skp2 (P63208 whole entry partner, species assumed): as the sequence (P63208 whole entry partner, one chain of several) above
Sequence of Skp2 (Q13616 whole entry partner, species assumed): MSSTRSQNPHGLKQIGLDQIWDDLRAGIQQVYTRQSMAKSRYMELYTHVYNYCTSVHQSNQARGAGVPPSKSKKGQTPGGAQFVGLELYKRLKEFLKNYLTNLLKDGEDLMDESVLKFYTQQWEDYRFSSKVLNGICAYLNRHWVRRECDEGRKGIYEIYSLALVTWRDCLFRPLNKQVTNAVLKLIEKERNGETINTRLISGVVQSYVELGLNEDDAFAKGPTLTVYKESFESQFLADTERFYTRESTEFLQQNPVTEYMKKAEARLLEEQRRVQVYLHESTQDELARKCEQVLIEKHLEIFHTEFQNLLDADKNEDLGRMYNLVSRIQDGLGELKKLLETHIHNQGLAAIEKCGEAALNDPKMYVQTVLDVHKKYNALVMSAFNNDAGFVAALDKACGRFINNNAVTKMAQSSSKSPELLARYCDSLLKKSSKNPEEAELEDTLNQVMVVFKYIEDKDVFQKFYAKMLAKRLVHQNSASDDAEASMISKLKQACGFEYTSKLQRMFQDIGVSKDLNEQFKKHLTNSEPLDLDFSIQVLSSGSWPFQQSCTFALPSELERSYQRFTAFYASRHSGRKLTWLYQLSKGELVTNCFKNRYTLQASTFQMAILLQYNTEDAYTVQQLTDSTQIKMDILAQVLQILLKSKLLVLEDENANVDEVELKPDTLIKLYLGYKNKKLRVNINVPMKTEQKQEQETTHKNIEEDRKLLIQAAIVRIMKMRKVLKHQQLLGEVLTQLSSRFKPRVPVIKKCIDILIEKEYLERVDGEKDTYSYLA
Sequence of Skp2 (P62877 whole entry partner, species assumed): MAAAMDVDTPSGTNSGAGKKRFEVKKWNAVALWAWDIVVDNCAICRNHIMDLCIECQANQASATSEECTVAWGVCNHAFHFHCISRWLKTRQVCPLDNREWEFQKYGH
Sequence of FBW7/Skp1 (Q969H0 whole entry, species assumed): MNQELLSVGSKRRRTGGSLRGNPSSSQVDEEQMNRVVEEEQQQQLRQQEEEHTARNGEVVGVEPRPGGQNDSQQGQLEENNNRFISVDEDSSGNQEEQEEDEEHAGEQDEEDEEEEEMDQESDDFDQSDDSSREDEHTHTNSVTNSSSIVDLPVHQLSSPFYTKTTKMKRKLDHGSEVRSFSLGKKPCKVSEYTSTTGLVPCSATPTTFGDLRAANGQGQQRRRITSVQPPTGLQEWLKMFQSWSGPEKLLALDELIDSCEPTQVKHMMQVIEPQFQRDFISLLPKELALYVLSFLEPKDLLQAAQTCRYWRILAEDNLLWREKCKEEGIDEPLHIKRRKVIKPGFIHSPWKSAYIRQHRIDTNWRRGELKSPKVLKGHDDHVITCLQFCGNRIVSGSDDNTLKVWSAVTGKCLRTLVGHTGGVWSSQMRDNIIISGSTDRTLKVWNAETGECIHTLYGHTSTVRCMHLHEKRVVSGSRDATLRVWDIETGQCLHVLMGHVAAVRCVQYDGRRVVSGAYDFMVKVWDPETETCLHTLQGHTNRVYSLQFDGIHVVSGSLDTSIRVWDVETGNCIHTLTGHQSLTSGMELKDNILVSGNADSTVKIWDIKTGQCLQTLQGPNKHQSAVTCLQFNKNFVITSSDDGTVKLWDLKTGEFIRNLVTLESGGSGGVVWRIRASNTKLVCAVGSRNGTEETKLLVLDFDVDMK
Sequence of FBW7/Skp1 (P63208 whole entry partner, species assumed): as the sequence (P63208 whole entry partner, one chain of several) above
Sequence of FBW7/Skp1 (Q13616 whole entry partner, species assumed): as the sequence (Q13616 whole entry partner, species assumed) above
Sequence of FBW7/Skp1 (P62877 whole entry partner, species assumed): as the sequence (P62877 whole entry partner, species assumed) above
Sequence of β-TrCP1/Skp1 (P63208 2-163 partner limits assumed, one chain of several): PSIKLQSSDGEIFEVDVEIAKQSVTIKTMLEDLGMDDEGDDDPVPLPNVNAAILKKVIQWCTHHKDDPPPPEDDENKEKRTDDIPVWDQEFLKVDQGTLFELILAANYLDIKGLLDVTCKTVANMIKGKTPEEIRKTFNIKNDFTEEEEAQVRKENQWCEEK

Cc1ccc(S(=O)(=O)N[C@H](CC(=O)O)C(=O)N[C@@H](CCC(=O)O)C(=O)NCC(=O)N[C@@H](Cc2cccc(F)c2)C(=O)N[C@@H](Cc2c[nH]c3ccccc23)C(=O)N(C)[C@@H](CCC(=O)O)C(N)=O)cc1 [UBP032, Ts-dEGF(3F)WE(Me)-NH2] (Tos-[dD]EG[Phe(3-F)]W[NMeE]-NH2)
Ub Assay 100 μM [1]: inhibits
Biotin Pulldown Assay 100 μM [2]: inhibits
inhibition at 100 µM [3]: 10%
inhibition at 10 µM [3]: 4%
inhibition at 100 µM [4]: 0%
inhibition at 10 µM [4]: 0%

NC(=O)[C@H](CCC(=O)O)NC(=O)[C@H](Cc1c[nH]c2ccccc12)NC(=O)[C@H](Cc1cccc(F)c1)NC(=O)CNC(=O)[C@H](CCC(=O)O)NC(=O)[C@@H](CC(=O)O)NS(=O)(=O)c1ccc2ccccc2c1 [UBP031, 2-NaphthylSO2-dEGF(3F)WE-NH2] (2Naphthylsulfonyl-[dD]EG[Phe(3-F)]WE-NH2)
Ub Assay 10 μM [1]: reduces/
Ub Assay 100 μM [1]: inhibits
IC50 [5, 6]: 0.044 ± 0.005 µM
Biotin Pulldown Assay 10 μM [2]: reduces/
Biotin Pulldown Assay 100 μM [2]: inhibits
inhibition at 100 µM [3]: 11%
inhibition at 10 µM [3]: 10%
inhibition at 100 µM [4]: 17%
inhibition at 10 µM [4]: 0%

Cc1ccc(S(=O)(=O)N[C@H](CC(=O)O)C(=O)N[C@@H](CCC(=O)O)C(=O)NCC(=O)N[C@@H](Cc2cccc(Cl)c2)C(=O)N[C@@H](Cc2c[nH]c3ccccc23)C(=O)N[C@@H](CCC(=O)O)C(N)=O)cc1 [UBP034, Ts-dEGF(3Cl)WE-NH2] (Tos-[dD]EG[Phe(3-Cl)]WE-NH2)
Ub Assay 10 μM [1]: inhibits/
Ub Assay 100 μM [1]: inhibits
IC50 [5, 6]: 0.01 ± 0.002 µM
Biotin Pulldown Assay 10 μM [2]: s. reduces/
Biotin Pulldown Assay 100 μM [2]: inhibits
inhibition at 100 µM [3]: 6%
inhibition at 10 µM [3]: 8%
inhibition at 100 µM [4]: 0%
inhibition at 10 µM [4]: 0%

Cc1ccc(S(=O)(=O)N[C@H](CC(=O)O)C(=O)N[C@@H](CC(=O)O)C(=O)NCC(=O)N[C@@H](Cc2cccc(F)c2)C(=O)N[C@@H](Cc2c[nH]c3ccccc23)C(=O)N[C@@H](CCC(=O)O)C(N)=O)cc1 [UBP025, Ts-dDGF(3F)WE-NH2] (Tos-[dD]DG[Phe(3-F)]WE-NH2)
Ub Assay 10 μM [1]: inhibits/
Ub Assay 100 μM [1]: inhibits
IC50 [5, 6]: 0.025 ± 0.004 µM
IC50 [5, 7]: 0.025 µM
Biotin Pulldown Assay 10 μM [2]: s. reduces/
Biotin Pulldown Assay 100 μM [2]: inhibits
inhibition at 100 µM [3]: 8%
inhibition at 10 µM [3]: 1%
inhibition at 100 µM [4]: 22%
inhibition at 10 µM [4]: 0%

Cc1ccc(S(=O)(=O)N[C@H](CC(=O)O)C(=O)N[C@@H](CCC(=O)O)C(=O)NCC(=O)N[C@@H](Cc2cccc(F)c2)C(=O)N[C@@H](Cc2c[nH]c3ccccc23)C(=O)N[C@@H](CC(=O)O)C(N)=O)cc1 [UBP027, Ts-dEGF(3F)WD-NH2] (Tos-[dD]EG[Phe(3-F)]WD-NH2)
Ub Assay 10 μM [1]: inhibits/
Ub Assay 100 μM [1]: inhibits
IC50 [5, 6]: 0.034 ± 0.005 µM
IC50 [5, 7]: 0.034 µM
Biotin Pulldown Assay 10 μM [2]: s. reduces/
Biotin Pulldown Assay 100 μM [2]: inhibits
inhibition at 100 µM [3]: 8%
inhibition at 10 µM [3]: 3%
inhibition at 100 µM [4]: 6%
inhibition at 10 µM [4]: 4%

NC(=O)[C@H](CCC(=O)O)NC(=O)[C@H](Cc1ccccc1)NC(=O)[C@H](Cc1ccccc1)NC(=O)CNC(=O)[C@H](CCC(=O)O)NC(=O)CCC(=O)O [UBP002, Suc-EGFFE-NH2] (Suc-EGFFE-NH2)
Ub Assay 10 μM [1]: reduces/
Ub Assay 100 μM [1]: inhibits
IC50 [5, 6]: 3.18 ± 0.357 µM
FP Assay IC50/μM ([5]; Tables 1, 3, 7, 8, 10 nM fluorescein-tagged IκB peptide): low μM inhibitor
Biotin Pulldown Assay 10 μM [2]: no effect/
Biotin Pulldown Assay 100 μM [2]: reduces
inhibition at 100 µM [3]: 0%
inhibition at 10 µM [3]: 0%
inhibition at 100 µM [4]: 0%
inhibition at 10 µM [4]: 14%

Cc1ccc(S(=O)(=O)N[C@H](CC(=O)O)C(=O)N[C@@H](CC(=O)O)C(=O)NCC(=O)N[C@@H](Cc2cccc(F)c2)C(=O)N[C@@H](Cc2c[nH]c3ccccc23)C(=O)N[C@@H](CC(=O)O)C(N)=O)cc1 [UBP028, Ts-dDGF(3F)WD-NH2] (Tos-[dD]DG[Phe(3-F)]WD-NH2)
Ub Assay 10 μM [1]: inhibits/
Ub Assay 100 μM [1]: inhibits
IC50 [5, 6]: 0.081 ± 0.02 µM
IC50 [5, 7]: 0.081 µM
Biotin Pulldown Assay 10 μM [2]: reduces/
Biotin Pulldown Assay 100 μM [2]: inhibits
inhibition at 100 µM [3]: 10%
inhibition at 10 µM [3]: 4%
inhibition at 100 µM [4]: 14%
inhibition at 10 µM [4]: 0%

COC(=O)N[C@H](CC(=O)O)C(=O)N[C@@H](CCC(=O)O)C(=O)NCC(=O)N[C@@H](Cc1cccc(F)c1)C(=O)N[C@@H](Cc1c[nH]c2ccccc12)C(=O)N[C@@H](CCC(=O)O)C(N)=O [UBP020, MeO(CO)-dEGF(3F)WE-NH2] (Moc-[dD]EG[Phe(3-F)]WE-NH2)
Ub Assay 10 μM [1]: inhibits/
Ub Assay 100 μM [1]: inhibits
IC50 [5, 6]: 0.076 ± 0.014 µM
Biotin Pulldown Assay 10 μM [2]: reduces/
Biotin Pulldown Assay 100 μM [2]: inhibits
inhibition at 100 µM [3]: 8%
inhibition at 10 µM [3]: 6%
inhibition at 100 µM [4]: 16%
inhibition at 10 µM [4]: 0%

CC(=O)N[C@H](CC(=O)O)C(=O)N[C@@H](CCC(=O)O)C(=O)NCC(=O)N[C@@H](Cc1cccc(F)c1)C(=O)N[C@@H](Cc1c[nH]c2ccccc12)C(=O)N[C@@H](CCC(=O)O)C(N)=O [UBP017, Ac-dEGF(3F)WE-NH2] (Ac-[dD]EG[Phe(3-F)]WE-NH2)
Ub Assay 10 μM [1]: reduces/
Ub Assay 100 μM [1]: inhibits
IC50 [5, 6]: 0.102 ± 0.017 µM
IC50 [5, 7]: 0.102 µM
Biotin Pulldown Assay 10 μM [2]: reduces/
Biotin Pulldown Assay 100 μM [2]: inhibits
inhibition at 100 µM [3]: 0%
inhibition at 10 µM [3]: 3%
inhibition at 100 µM [4]: 27%
inhibition at 10 µM [4]: 10%

Reference: patent publication US20190106460A1, “BINDING INHIBITORS OF THE BETA. TRANSDUCIN REPEAT-CONTAINING PROTEIN” (priority 2011, published 2019)
